In brackets after ≈: the same amount, converted by molar mass.
Legend:
wheat white powder = test: Live spray protection of plants, prevention and control effect; format: in vivo
From the text: The water-dispersible granules preparations with 50% of crystal form 1 and crystal form 2 were formulated into solutions, respectively, and the plants were protected by live spray. Crystal form 2 has better prevention and control effect.

[1] = Solubility in ethanol by high performance liquid chromatography
Method: Excess crystal form 1 and crystal form 2 were weighed and suspended in ethanol, shaken for 12 h, and high performance liquid chromatography was used to test the solubility.

[2] = High humidity stability of crystal form (XRPD test); format: physicochemical; settings: 90±5% humidity, 5 days and 10 days
Method: (§1) XRD (X-ray powder diffraction) method: instrument model: Rigaku Ultima IV; target: Cu-Kα (40 kV, 40 mA); using a D/tex Ultra detector at room temperature. The scanning range is from 3° to 45 in the 2θ interval, and the scanning speed is 20°/minute.

[3] = Light stability of crystal form (XRPD test); format: physicochemical; settings: 4500±500 lux light intensity, 5 days and 10 days
Method: as §1

[4] = High temperature stability of crystal form (XRPD test); format: physicochemical; settings: oven at 60±2° C., 5 and 10 days
Method: as §1, with “20°/minute. […] After 5 and 10 days, the sample was taken out for XRPD test to investigate the crystalline stability of the sample to temperature.” for “20°/minute.”

Which results are given for `CC(C)(C)C(O)(CCc1ccc(Cl)cc1)Cn1cncn1` (racemic) [96% tebuconazole TC, (RS)-1-(4-chlorophenyl)-4,4-dimethyl-3-(1H-1,2,4-triazol-1-ylmethyl) pentan-3-ol]?
prevention and control effect (wheat white powder; concentration 0.15625 mg/L): 0%; prevention and control effect (wheat white powder; concentration 0.625 mg/L): 30%; prevention and control effect (wheat white powder; concentration 2.5 mg/L): 50%; prevention and control effect (wheat white powder; concentration 10 mg/L): 100%

Which solubility at 12 h ([1]; organic solvent or mixture, thermodynamic from solid, Solubility, excess solid suspended in ethanol, shaken for 12 h, HPLC) does the source give for `CC(C)(C)C(O)(CCc1ccc(Cl)cc1)Cn1cncn1` (racemic) [crystal form 1, (RS)-1-(4-chlorophenyl)-4,4-dimethyl-3-(1H-1,2,4-triazol-1-ylmethyl) pentan-3-ol] here?
Its solubility at 12 h is 92.1 mg/mL (≈ 299 mM).

What does the source list for `CC(C)(C)C(O)(CCc1ccc(Cl)cc1)Cn1cncn1` (racemic) [crystal form 2, (RS)-1-(4-chlorophenyl)-4,4-dimethyl-3-(1H-1,2,4-triazol-1-ylmethyl) pentan-3-ol]?
crystalline stability of the samples to humidity [2]: stable; solubility in ethanol relative to crystal form 1 ([1]; ethanol, crystal form 2 versus crystal form 1): about 1.7 times; Solubility ([1]; excess solid suspended in ethanol, shaken for 12 h, HPLC): 156.2 mg/mL (≈ 507 mM); crystal form stability of the sample to light [3]: stable; crystalline stability of the sample to temperature [4]: stable

Reference: patent publication US11186552B2, “Tebuconazole polymorph and preparation method therefor” (East China University of Science and Technology, priority 2017, dated 2021)
